This note sets out measurements from ChEMBL document CHEMBL3232856, “Endomorphin analogues with mixed μ-opioid (MOP) receptor agonism/δ-opioid (DOP) receptor antagonism and lacking β-arrestin2 recruitment activity” (Bioorg Med Chem, 2014).

Each structure is given as a SMILES string. Active and inactive are the calls of the source. The calls are words filed in the database; no cut-off is given here. Residues, ends and D or L forms follow the SMILES beside them. Bounds are passed on as bounds.

The term EC50 denotes the concentration that produces a half-maximal response. In general, IC50 refers to the concentration that gives 50% inhibition. The term Ki denotes the equilibrium dissociation constant of an inhibitor or competing ligand from its target. Read a low Ki as higher affinity. For orientation: inhibition means the share of the control response that was lost under treatment.

In data set [1] the target is T1, Mu-type opioid receptor (Homo sapiens, UniProt P35372). Nature of the data set: Agonist activity at GFP-fused mu opioid receptor (unknown origin) expressed in HEK293 cells assessed as recruitment of beta-arrestin-2 after 10 mins by BRET assay. Type of data set: cell-based. (In general: Bioluminescence resonance energy transfer reports proximity on the nanometre scale.)

The target of data set [2] is T2, Kappa-type opioid receptor (Homo sapiens, UniProt P41145). Nature of the data set: Agonist activity at GFP-fused kappa opioid receptor (unknown origin) expressed in HEK293 cells assessed as recruitment of beta-arrestin-2 after 10 mins by BRET assay. Format: cell-based.
In data set [3] the target is Delta-type opioid receptor (Mus musculus, UniProt P32300). Nature of the data set: Agonist activity at delta opioid receptor in mouse vas deferens assessed as inhibition of electrically-stimulated muscle contraction. Format: tissue-based.
In data set [4] the target is Mu-type opioid receptor (Cavia porcellus, UniProt P97266). Nature of the data set: Agonist activity at mu opioid receptor in guinea pig ileum assessed as inhibition of electrically-stimulated muscle contraction. Type of data set: tissue-based.
In data set [5] the target is Delta-type opioid receptor (Rattus norvegicus, UniProt P33533). Briefly: Displacement of [3H]deltorphin-2 from delta opioid receptor in Sprague-Dawley rat brain P2 synaptosomal membranes.
The target in data set [6] is Mu-type opioid receptor (Rattus norvegicus, UniProt P33535). Nature of the data set: Displacement of [3H]DAMGO from mu opioid receptor in Sprague-Dawley rat brain P2 synaptosomal membranes. (In general: Displacement assays read how much labelled ligand stays bound in the presence of the test substance.)
For data set [7], the target named is T3, Delta-type opioid receptor (Homo sapiens, UniProt P41143). The conditions noted are these: HEK293, at 100 µM.
Data set [8] has as its target T3, Delta-type opioid receptor. The note with it: HEK293, at 100 µM. This is another data set of the same source.
In data set [9] the target is T1, Mu-type opioid receptor. Nature of the data set: Potency index, ratio of DAMGO EC50 to compound EC50 for mu opioid receptor (unknown origin) by beta-arrestin-2 recruitment assay. A general note: Activated receptors often draw arrestin, which recruitment assays turn into a signal.
Data set [10] concerns the target T1, Mu-type opioid receptor. The conditions noted are these: HEK293, at 1 µM.
Data set [11] has as its target T2, Kappa-type opioid receptor. The note with it: HEK293, at 0.1 to 10 µM.
Data set [12] has as its target T1, Mu-type opioid receptor. Nature of the data set: Intrinsic efficacy at GFP-fused mu opioid receptor (unknown origin) expressed in HEK293 cells assessed as recruitment of beta-arrestin-2 after 10 mins by BRET assay relative to untreated control. Type of data set: cell-based. The note with it: hek293, 10 min.
The target of data set [13] is T3, Delta-type opioid receptor. Nature of the data set: Agonist activity at GFP-fused delta opioid receptor (unknown origin) expressed in HEK293 cells assessed as recruitment of beta-arrestin-2 after 10 mins by BRET assay. Type of data set: functional, cell-based.
In data set [14] the target is T3, Delta-type opioid receptor. The note with it: HEK293, at 0.1 to 10 µM.
For data set [15], the target named is T1, Mu-type opioid receptor. The note with it: HEK293, at 100 µM.

T1 sequence (P35372 whole entry, the tested form may be a part): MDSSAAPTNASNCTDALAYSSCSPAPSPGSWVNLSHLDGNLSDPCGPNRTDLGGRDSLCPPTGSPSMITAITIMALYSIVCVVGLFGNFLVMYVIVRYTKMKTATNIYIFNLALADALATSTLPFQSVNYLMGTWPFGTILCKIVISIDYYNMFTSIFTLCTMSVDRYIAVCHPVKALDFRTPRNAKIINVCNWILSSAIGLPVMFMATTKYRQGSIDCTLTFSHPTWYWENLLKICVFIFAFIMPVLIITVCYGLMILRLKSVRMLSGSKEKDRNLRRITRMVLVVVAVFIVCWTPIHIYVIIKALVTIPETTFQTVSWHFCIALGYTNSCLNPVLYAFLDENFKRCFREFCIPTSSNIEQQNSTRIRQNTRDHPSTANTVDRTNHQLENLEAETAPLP
Sequence of Delta-type opioid receptor (Rattus norvegicus, UniProt P33533) (P33533 whole entry): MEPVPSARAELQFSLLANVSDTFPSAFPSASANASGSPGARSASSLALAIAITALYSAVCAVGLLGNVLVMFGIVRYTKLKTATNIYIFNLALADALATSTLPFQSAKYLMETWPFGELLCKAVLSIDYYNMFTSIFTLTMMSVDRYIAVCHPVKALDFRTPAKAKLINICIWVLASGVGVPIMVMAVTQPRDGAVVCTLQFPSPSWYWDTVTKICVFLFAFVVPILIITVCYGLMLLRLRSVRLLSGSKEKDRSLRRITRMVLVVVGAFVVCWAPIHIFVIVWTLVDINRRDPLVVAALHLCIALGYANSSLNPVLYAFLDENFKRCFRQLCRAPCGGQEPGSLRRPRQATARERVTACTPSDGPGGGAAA
T3 sequence (P41143 whole entry): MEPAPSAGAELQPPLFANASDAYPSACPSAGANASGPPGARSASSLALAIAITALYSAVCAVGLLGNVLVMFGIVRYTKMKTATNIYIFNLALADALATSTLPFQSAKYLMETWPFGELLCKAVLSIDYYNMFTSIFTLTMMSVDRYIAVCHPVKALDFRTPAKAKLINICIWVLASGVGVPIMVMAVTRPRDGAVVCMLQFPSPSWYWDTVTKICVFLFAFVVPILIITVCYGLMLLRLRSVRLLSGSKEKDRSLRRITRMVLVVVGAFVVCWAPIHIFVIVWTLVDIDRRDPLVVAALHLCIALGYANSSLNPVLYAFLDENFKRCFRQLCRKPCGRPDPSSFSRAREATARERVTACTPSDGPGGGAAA
T2 sequence (P41145 whole entry, the tested form may be a part): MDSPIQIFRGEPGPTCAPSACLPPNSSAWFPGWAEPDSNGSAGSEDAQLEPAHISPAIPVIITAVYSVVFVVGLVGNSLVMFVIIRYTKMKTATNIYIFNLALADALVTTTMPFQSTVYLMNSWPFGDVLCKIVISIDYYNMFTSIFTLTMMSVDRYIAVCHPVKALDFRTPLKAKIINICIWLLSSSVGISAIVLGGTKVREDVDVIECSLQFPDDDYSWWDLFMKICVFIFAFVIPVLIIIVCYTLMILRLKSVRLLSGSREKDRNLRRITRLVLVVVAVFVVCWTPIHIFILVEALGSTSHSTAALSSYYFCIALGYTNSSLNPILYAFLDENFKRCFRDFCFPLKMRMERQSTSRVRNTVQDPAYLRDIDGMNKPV
Sequence of Delta-type opioid receptor (Mus musculus, UniProt P32300) (P32300 whole entry): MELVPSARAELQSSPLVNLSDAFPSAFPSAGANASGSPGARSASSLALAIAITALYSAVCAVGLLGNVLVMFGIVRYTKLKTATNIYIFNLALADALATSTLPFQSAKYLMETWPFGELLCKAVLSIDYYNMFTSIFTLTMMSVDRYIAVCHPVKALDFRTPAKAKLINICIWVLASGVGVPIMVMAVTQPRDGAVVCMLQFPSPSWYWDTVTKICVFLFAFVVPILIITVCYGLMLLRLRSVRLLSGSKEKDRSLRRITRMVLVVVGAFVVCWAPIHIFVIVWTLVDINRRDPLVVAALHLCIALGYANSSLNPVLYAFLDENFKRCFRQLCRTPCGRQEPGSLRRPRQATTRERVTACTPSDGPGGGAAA
Sequence of Mu-type opioid receptor (Rattus norvegicus, UniProt P33535) (P33535 whole entry): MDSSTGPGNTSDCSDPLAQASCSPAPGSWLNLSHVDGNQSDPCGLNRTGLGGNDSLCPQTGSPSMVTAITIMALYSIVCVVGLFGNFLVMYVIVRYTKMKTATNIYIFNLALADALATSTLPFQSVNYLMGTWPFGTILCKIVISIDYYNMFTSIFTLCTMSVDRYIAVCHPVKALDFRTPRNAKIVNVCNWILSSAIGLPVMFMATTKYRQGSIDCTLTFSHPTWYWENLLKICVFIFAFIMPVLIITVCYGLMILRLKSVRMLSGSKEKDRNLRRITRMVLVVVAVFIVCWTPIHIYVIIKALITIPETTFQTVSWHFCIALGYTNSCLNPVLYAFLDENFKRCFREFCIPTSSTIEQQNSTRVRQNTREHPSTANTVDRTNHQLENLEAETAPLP
Sequence of Mu-type opioid receptor (Cavia porcellus, UniProt P97266) (P97266 whole entry): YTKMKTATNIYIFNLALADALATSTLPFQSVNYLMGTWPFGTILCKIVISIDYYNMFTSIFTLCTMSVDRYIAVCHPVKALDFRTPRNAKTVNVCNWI

On to `Cc1cc(C)c(C[C@H](NC(=O)[C@@H]2CCCN2C(=O)[C@@H](N)Cc2c(C)cc(O)cc2C)C(N)=O)c(C)c1`, for which the EC50 at Mu-type opioid receptor [1] (read-out: EC50) was 18.6 nM; in data set [2], “Not Active”; in [13] it was “Not Active”. In addition, the IC50 is > 10000 nM in data set [3] and 2.68 nM on Mu-type opioid receptor [4]. Besides, the Ki in data set [5] was determined as 13.1 nM; at Mu-type opioid receptor [6], 0.13 nM. The inhibition result in [7], in data set [8], in data set [11] and in data set [14] was “inactive” in each case. The “Ratio EC50” value at Mu-type opioid receptor [9] is reported as 20. The inhibition result on Mu-type opioid receptor [10] was “Active”. On Mu-type opioid receptor [12], the Ratio is 0.4.

In the case of `Cc1cc(C)c(C[C@H](NC(=O)[C@H](Cc2ccccc2)NC(=O)[C@@H]2CCCN2C(=O)[C@@H](N)Cc2c(C)cc(O)cc2C)C(N)=O)c(C)c1`, the EC50 entry (at Mu-type opioid receptor [1] (hek293); in data set [2]; in data set [13]) was “Not Active” in each case. The IC50 was > 10000 nM in [3] and 66.7 nM at Mu-type opioid receptor [4]. Further, the inhibition entry (on Mu-type opioid receptor [15]; in data set [7]; in data set [8]; in [11]; in data set [14]) was “inactive” each time. The Ki amounted to 24.5 nM in [5] and 0.37 nM on Mu-type opioid receptor [6]. Moreover, the inhibition entry on Mu-type opioid receptor [10] was “Active”.

As to `Cc1cccc(C)c1C[C@H](NC(=O)[C@H](Cc1ccccc1)NC(=O)[C@@H]1CCCN1C(=O)[C@@H](N)Cc1c(C)cc(O)cc1C)C(N)=O`, the EC50 result (at Mu-type opioid receptor [1] (hek293); in [2]; in data set [13]) was “Not Active” throughout. The values for the IC50 (in data set [3]; at Mu-type opioid receptor [4]) were > 10000 nM and 249 nM, respectively. In addition, the inhibition entry (on Mu-type opioid receptor [15]; in data set [7]; in data set [8]; in data set [11]; in data set [14]) was “inactive” throughout. For the same molecule, the Ki in data set [5] is 40 nM; at Mu-type opioid receptor [6], 0.31 nM. In addition, the inhibition entry at Mu-type opioid receptor [10] was “Active”.

As to `Cc1cc(C)c(C[C@H](NC(=O)[C@H](Cc2c(C)cc(C)cc2C)NC(=O)[C@@H]2CCCN2C(=O)[C@@H](N)Cc2c(C)cc(O)cc2C)C(N)=O)c(C)c1`, the EC50 entry (on Mu-type opioid receptor [1] (hek293); in data set [2]; in data set [13]) was “Not Active” each time. In addition, the IC50 in data set [3] is > 10000 nM; at Mu-type opioid receptor [4], 9.28 nM. The figures for the Ki (in data set [5]; at Mu-type opioid receptor [6]) were 1.63 nM and 0.47 nM, respectively. For the same molecule, the inhibition result (in data set [7]; in [8]; on Mu-type opioid receptor [10]) was “Active” throughout. For the same molecule, the inhibition result in data set [11] and in data set [14] was “inactive” in each case.

For the molecule `C[C@@H](NC(=O)[C@@H](N)Cc1ccc(O)cc1)C(=O)NCC(=O)N(C)[C@@H](Cc1ccccc1)C(=O)NCCO`, the inhibition entry on Mu-type opioid receptor [10] is “Active”.

The molecule `Oc1ccc2c3c1O[C@H]1c4oc5ccccc5c4C[C@@]4(O)[C@@H](C2)N(CC2CC2)CC[C@]314` displayed an inhibition in data set [8] of 50%.

On to `Cc1cc(O)cc(C)c1C[C@H](N)C(=O)N1CCC[C@H]1C(=O)N[C@@H](Cc1ccccc1)C(=O)N[C@@H](Cc1c[nH]c2ccccc12)C(N)=O` (HELM PEPTIDE1{[Cc1cc(O)cc(C)c1C[C@H](N)C(=O)[*:2]].P.F.W.[am]}$$$$V2.0), for which the EC50 result (on Mu-type opioid receptor [1] (hek293); in data set [2]; in [13]) was “Not Active” each time. Further, the IC50 in [3] is > 10000 nM; on Mu-type opioid receptor [4], 207 nM. Besides, the inhibition result (on Mu-type opioid receptor [15]; in data set [7]; in [8]; in data set [11]; in [14]) was “inactive” in each case. The Ki in data set [5] was 25.4 nM; on Mu-type opioid receptor [6], 0.34 nM. For the same molecule, the inhibition entry at Mu-type opioid receptor [10] was “Active”.

In the case of `Cc1cc(O)cc(C)c1C[C@H](NC(=O)[C@H](Cc1ccccc1)NC(=O)[C@@H]1CCCN1C(=O)[C@@H](N)Cc1c(C)cc(O)cc1C)C(N)=O` (HELM PEPTIDE1{[Cc1cc(O)cc(C)c1C[C@H](N)C(=O)[*:2]].P.F.[Cc1cc(O)cc(C)c1C[C@H](N[*:1])C(=O)[*:2]].[am]}$$$$V2.0), the EC50 entry (at Mu-type opioid receptor [1] (hek293); in [2]; in data set [13]) was “Not Active” throughout. Also, the IC50 in data set [3] is > 10000 nM; on Mu-type opioid receptor [4], 44.6 nM. The inhibition entry (on Mu-type opioid receptor [15]; in data set [7]; in [8]; in data set [11]; in data set [14]) was “inactive” in each case. Further, the results for the Ki (in data set [5]; on Mu-type opioid receptor [6]) were 87.2 nM and 0.28 nM, respectively. The inhibition entry on Mu-type opioid receptor [10] is “Active”.

As to `Cc1cc(O)cc(C)c1C[C@H](N)C(=O)N1CCC[C@H]1C(=O)N[C@@H](Cc1ccccc1)C(=O)N[C@@H](Cc1ccc2ccccc2c1)C(N)=O` (HELM PEPTIDE1{[Cc1cc(O)cc(C)c1C[C@H](N)C(=O)[*:2]].P.F.[O=C([C@H](Cc1ccc2ccccc2c1)N[*:1])[*:2]].[am]}$$$$V2.0), the concentration giving a half-maximal response (EC50) entry (on Mu-type opioid receptor [1] (hek293); in [2]; in data set [13]) was “Not Active” each time. Further, the IC50 in data set [3] is > 10000 nM; at Mu-type opioid receptor [4] it was 40.2 nM. The inhibition entry at Mu-type opioid receptor [15] and on Mu-type opioid receptor [10] was “Active” each time. The figures for the Ki (in [5]; at Mu-type opioid receptor [6]) were 23.2 nM and 0.81 nM, respectively. The inhibition entry in data set [7], in data set [8], in [11] and in data set [14] was “inactive” in each case.

On to `Cc1cc(O)cc(C)c1C[C@H](N)C(=O)N1CCC[C@H]1C(=O)N[C@@H](Cc1ccccc1)C(=O)N[C@@H](Cc1cccc2ccccc12)C(N)=O` (HELM PEPTIDE1{[Cc1cc(O)cc(C)c1C[C@H](N)C(=O)[*:2]].P.F.[O=C([C@H](Cc1cccc2ccccc12)N[*:1])[*:2]].[am]}$$$$V2.0), for which the EC50 result (at Mu-type opioid receptor [1] (hek293); in data set [2]; in data set [13]) was “Not Active” in each case. In addition, the IC50 in [3] is > 10000 nM; on Mu-type opioid receptor [4], 14.3 nM. Moreover, the Ki in data set [5] stood at 51.7 nM; at Mu-type opioid receptor [6], 0.28 nM. Further, the inhibition result in data set [7], in [8], in data set [11] and in data set [14] was “inactive” each time. Further, the inhibition result on Mu-type opioid receptor [10] was “Active”.

Regarding `Cc1cccc(C)c1C[C@H](NC(=O)[C@@H]1CCCN1C(=O)[C@@H](N)Cc1c(C)cc(O)cc1C)C(N)=O` (HELM PEPTIDE1{[Cc1cc(O)cc(C)c1C[C@H](N)C(=O)[*:2]].P.[Cc1cccc(C)c1C[C@H](N[*:1])C(=O)[*:2]].[am]}$$$$V2.0), the EC50 result (at Mu-type opioid receptor [1] (hek293); in data set [2]; in data set [13]) was “Not Active” throughout. The IC50 came out at 745 nM in data set [3] and 0.274 nM on Mu-type opioid receptor [4]. The Ki in data set [5] was found to be 33 nM; at Mu-type opioid receptor [6], 0.15 nM.

Regarding `Cc1cc(O)cc(C)c1C[C@H](N)C(=O)N1CCC[C@H]1C(=O)N[C@@H](Cc1ccc2ccccc2c1)C(N)=O` (HELM PEPTIDE1{[Cc1cc(O)cc(C)c1C[C@H](N)C(=O)[*:2]].P.[O=C([C@H](Cc1ccc2ccccc2c1)N[*:1])[*:2]].[am]}$$$$V2.0), the EC50 entry (at Mu-type opioid receptor [1] (hek293); in [2]; in data set [13]) was “Not Active” throughout. Further, the IC50 (in data set [3]; at Mu-type opioid receptor [4]) was > 10000 nM in each case. For the same molecule, the values for the Ki (in data set [5]; on Mu-type opioid receptor [6]) were 68.3 nM and 16.9 nM, respectively. Also, the inhibition result in [7], in [8], in data set [11] and in data set [14] was “inactive” throughout. In addition, the inhibition result at Mu-type opioid receptor [10] was “Active”.

As for `Cc1cc(O)cc(C)c1C[C@H](N)C(=O)N1CCC[C@H]1C(=O)N[C@@H](Cc1cccc2ccccc12)C(N)=O` (HELM PEPTIDE1{[Cc1cc(O)cc(C)c1C[C@H](N)C(=O)[*:2]].P.[O=C([C@H](Cc1cccc2ccccc12)N[*:1])[*:2]].[am]}$$$$V2.0), the EC50 result (on Mu-type opioid receptor [1] (hek293); in data set [2]; in [13]) was “Not Active” each time. Besides, the IC50 in data set [3] came to 10000 nM; at Mu-type opioid receptor [4], 4.63 nM. In addition, the Ki was 121 nM in [5] and 0.7 nM at Mu-type opioid receptor [6].
